Holding throughout (assay): inhibition of tumour cell growth, NCI panel, 48 h
For assay [1], the system named is CAKI-1 renal.
In assay [2] the test system is HOP-92 NSCLC.
For assay [3], the system named is TK-10 renal.
Assay [4] relates to T-47D breast.
Assay [5] has as its system NCI-H226 lung.
The test system of assay [6] is SW-620 colon.
The test system of assay [7] is OVCAR-5 ovarian.
Assay [8] relates to HCT-15 colon.

“And” between values parts separate entries of the source, which are not always exact repeats. Equal values may be shown once.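 Growth conditions: 96-well plates. Treatment: test compound, 48 hours, 5 concentrations. Analysis: linear interpolation between bracketing concentrations; unreached endpoints set to highest concentration. GI50 marks 50% less growth. TGI is the concentration that stops growth completely.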

Results on 9 compounds are retold here after PubChem BioAssay (NCI).

For `Oc1c(I)cc(Cl)c2cccnc12`, the GI50 in assay [1] is 2.38 µM and 21.4 µM; in assay [3], 31.3 µM and 24 µM; in assay [4], 4160 nM and 8700 nM; in assay [5], 3.02 µM and 2.66 µM; in assay [6], 4.05 µM and 3.73 µM; in assay [7] it was 6.43 µM and 13.2 µM. In addition, the GI50 in assay [8] is 5.48 µM and 3.82 µM. For the same compound, the TGI in assay [2] is 17.9 µM and 50.3 µM; in assay [3], > 100 µM and 73.8 µM; in assay [4], 28.7 µM and > 100 µM; in assay [5], 20 µM and 8.8 µM; in assay [6], > 100 µM and 32.5 µM; in assay [7], 73.5 µM and 49.6 µM. In addition, in assay [8], the TGI is > 100 µM and 38.5 µM.
Regarding `CC/C(=C(/c1ccc(/C=C/C(=O)O)cc1)c1ccc2[nH]ncc2c1)c1ccc(F)cc1Cl`, the GI50 is 11.9 µM in assay [1]; 10100 nM in assay [2]; 15.9 µM in assay [3]; 141 nM in assay [4]; 19.3 µM in assay [5]; 12 µM in assay [6]. The GI50 was 17.5 µM in assay [7] and 7.45 µM in assay [8]. Moreover, the TGI in assay [1] came out at 25.6 µM; in assay [2], 24.8 µM; in assay [3], 33.4 µM; in assay [4], 26.9 µM; in assay [5] it was 47.6 µM; in assay [6], 28.5 µM. Further, the TGI in assay [7] is 35.9 µM; in assay [8], 22 µM.
As for `N=C(N)c1ccc(OCCCCCOc2ccc(C(=N)N)cc2)cc1`, the GI50 is 10.3 µM in assay [1]; 1890 nM in assay [2]; 8.49 µM in assay [3]; 1140 nM in assay [4]; 5.24 µM and 6.96 µM and 14.2 µM in assay [5]; 5.17 µM and 8.95 µM and 18.1 µM in assay [6]. The results for the GI50 in assay [7] and in assay [8] were 34 µM and 7.57 µM, respectively. The TGI was more than 100 µM in assay [1]; 21.5 µM and > 100 µM in assay [2]; 18.9 µM and 27.6 µM and 48.3 µM in assay [3]; 13.3 µM and 37.7 µM and > 100 µM in assay [4]; > 50 µM and 30.2 µM and 58.8 µM in assay [5]; > 50 µM and 57.7 µM and 86.9 µM in assay [6]. Further, the TGI in assay [7] is > 50 µM and 78.3 µM and > 100 µM; in assay [8], more than 100 µM.
Take `CC1=NN(c2nc(N)nc(/C=C\c3ccccc3)n2)C(C)(C)C1`: the GI50 in assay [1] was 15.4 µM; in assay [2] it was 19500 nM; in assay [3] it was 7.76 µM; in assay [4] it was 2500 nM; in assay [5], 13.7 µM; in assay [6], 4.48 µM. Besides, the GI50 was 20.7 µM in assay [7] and 3.27 µM in assay [8]. The TGI in assay [1] came out at 30.9 µM; in assay [2], 39.5 µM; in assay [3], 22.2 µM; in assay [4], 15.1 µM; in assay [5] it was 28.6 µM; in assay [6] it was 44.2 µM. The values for the TGI in assay [7] and in assay [8] were 36.5 µM and 44.7 µM, respectively.
For `CC(C)C/C(=N\NC(=O)c1ccncc1)c1cc(Cl)ccc1O`, the GI50 in assay [1] is 0.213 µM; in assay [2] it was 306 nM; in assay [3], 0.348 µM; in assay [4], 584 nM; in assay [5], 0.848 µM; in assay [6] it was 0.677 µM. In addition, the GI50 in assay [7] was 0.825 µM; in assay [8], 0.0938 µM. Also, the TGI in assay [1] was 12.6 µM; in assay [2], 28.6 µM; in assay [3], more than 100 µM; in assay [4], 33.3 µM; in assay [5] it was 22.5 µM; in assay [6], more than 100 µM. The TGI in assay [7] is 38.9 µM; in assay [8] it was 98.9 µM.
With `CCN(CC)CCS(=O)(=O)CCNc1ccnc2cc(Cl)ccc12`, the GI50 in assay [1] was 0.782 µM; in assay [2], 619 nM; in assay [3] it was 1.07 µM; in assay [4], 6230 nM; in assay [5] it was 4.61 µM; in assay [6] it was 0.608 µM. The GI50 in assay [7] is 3.97 µM; in assay [8], 2.33 µM. Moreover, the TGI in assay [1] was 6.08 µM; in assay [2] it was 7.39 µM; in assay [3], 4.3 µM; in assay [4] it was 48.8 µM; in assay [5] it was more than 100 µM; in assay [6], 12.5 µM. The TGI in assay [7] was more than 100 µM; in assay [8], more than 38.1 µM.
Take `Nc1n[nH]c2ccc([C@@H]3Nc4c(F)cc5[nH]ncc5c4[C@H]4C5CCC(C5)[C@@H]34)cc12` (some centres not stated): the GI50 in assay [1] is 0.329 µM; in assay [2], 1480 nM; in assay [3] it was 5.6 µM; in assay [4], 509 nM; in assay [5] it was 0.629 µM; in assay [6], 0.318 µM. For the same compound, the GI50 in assay [7] was 0.612 µM; in assay [8] it was 0.222 µM. Besides, the TGI was more than 47.5 µM in assay [1]; more than 29.3 µM in assay [2]; more than 79.4 µM in assay [3]; more than 100 µM in assay [4]; more than 19.9 µM in assay [5]; more than 49.1 µM in assay [6]. In addition, the values for the TGI in assay [7] and in assay [8] were more than 55.7 µM and more than 41.5 µM, respectively.
For `Cc1ccccc1CNc1c2ccccc2nc2ccccc12`, the GI50 is 1.42 µM in assay [1]; 834 nM in assay [2]; 2.78 µM in assay [3]; 2080 nM in assay [4]; 2.24 µM in assay [5]; 1.77 µM in assay [6]. In addition, the GI50 was 2.08 µM in assay [7] and 1.8 µM in assay [8]. In addition, the TGI in assay [1] is 3.45 µM; in assay [2], 4.54 µM; in assay [3] it was 11.7 µM; in assay [4], 5.93 µM; in assay [5], 6.17 µM; in assay [6], 5.64 µM. The TGI in assay [7] came to 7.57 µM; in assay [8], 4.02 µM.
Consider `O=C(CN(/C=C/C(=O)C(F)(F)F)c1ccccc1)c1ccc(F)cc1`, for which the GI50 in assay [1] was 19.8 µM; in assay [2], 24800 nM; in assay [3], 33 µM; in assay [4], 35300 nM; in assay [5] it was 19.6 µM; in assay [6] it was 19.9 µM. Moreover, the GI50 was 25.6 µM in assay [7] and 25.4 µM in assay [8]. For the same compound, the TGI in assay [1] was 48.9 µM; in assay [2] it was 90.4 µM; in assay [3], more than 100 µM; in assay [4], more than 100 µM; in assay [5], 47.8 µM; in assay [6], 42.9 µM. Besides, the TGI in assay [7] is 88.7 µM; in assay [8], more than 100 µM.
